Experimental data published in patent publication US20250304594A1, “METHYL (R)-2-(FLUOROMETHYL)-5-OXO-4-PHENYL-4,5,6,7-TETRAHYDRO-1H-CYCLOPENTA[B]PYRIDINE-3-CARBOXYLATE AND METHYL (R)-2-(FLUOROMETHYL)-5-OXO-4-PHENYL-1,4,5,7-TETRAHYDROFURO[3,4-B]PYRIDINE-3-CARBOXYLATE AS Cav1,2 ACTIVATORS” (Novartis AG, priority 2020, published 2025).

Columns and labels:
human CaV1.2 = target: T1, human CaV1.2 (Homo sapiens, UniProt Q13936); assay: Sophion QPatch dose-response assay, whole-cell voltage clamp of barium currents in CaV1.2-HEK293(AUX) cells; format: cell-based; settings: Table 9, n = 1 unless * n = 2; for EC50: 6-point dose response, 10 determinations per concentration; for Qpatch Emax: maximal fold change of peak inward current
T1 construct: expressed in transfected cells; host or cells: Flp-In 293 T-Rex (HEK293), monoclonal CaV1.2-HEK293(AUX) clone 2-19B; doxycycline-induced auxiliary subunits
Description: The monoclonal CaV1.2-HEK293(AUX) cell line constitutively expresses human CaV1.2 alpha1C (α1C) subunit (CACNA1C) and has doxycycline-inducible expression of the alpha2delta (α2Δ2) auxiliary subunit (CACNA2D2) and beta2 (02) auxiliary subunit (CACNB2). To generate the cell line, expression vectors pcDNA5.0/FRT-TO-CACNA2D2-FCS-P2A-CACNB2 and pCMV6-entry-CACNA1C were established via gene synthesis and cloning. Here, pcDNA5.0/FRT-TO plasmid is from Invitrogen, pCMV6-entry is from Origene, FCS stands for Furin Cleavage Site, P2A is a peptide self-cleavage sequence derived from porcine teschovirus-1, and FRT is the Flippase recognition target site. Next, parental line Flp-In™ 293 T-Rex (Invitrogen) was transfected with pcDNA5.0/FRT-TO-CACNA2D2-FCS-P2A-CACNB2 and Flippase vector pOG44 (Invitrogen) to establish targeted integration of the CACNA2D2-FCS-P2A-CACNB2 expression cassette into the pre-engineered FRT site in Flp-In™ 293 T-Rex. This intermediate cell line was then transfected with pCMV6-entry-CACNA1C to establish stable CACNA1C expression. Clonal isolation was achieved under Neomycin selection.
Electrophysiological Characterization of CaV1.2 Activators Using CaV1.2-HEK293(AUX) Cell Line and QPatch
24 hours prior an electrophysiology experiment, doxycycline (1 μg/ml) was added to the growth medium (Table 6), and 25 μM of verapamil was co-applied to prevent calcium influx triggered cell death. Cell confluency should reach 70%-80% right before the experiment. To harvest cells (from a T175 cm^2 flask as an example), growth media were removed completely, and the cells were rinsed with 10 mL of D-PBS. D-PBS was aspirated, and 10 mL of Detachin (Genlantis) was added and the plate was placed in a 37° C. incubator for 10 minutes. Detached cells were placed into a 15 mL conical tube and spun at 1000 rpm for 2 minutes. Supernatant was removed, and cells were re-suspended in QPatch complete media (Table 7) to desired cell density of 1.5-3 million cells per QPatch run. Each experimental run uses 1.5 mL of cells.
The cells suspension was taken to the Sophion QPatch platform that uses whole-cell voltage clamp to measure barium currents conducted through CaV1.2 on single-hole QPlates. Extracellular and intracellular patch clamp solutions are described in Tables 7 and 8, respectively. A dose-response assay protocol was used to determine the maximal fold change of peak inward current (Emax) and potency (EC50) of each compound. The protocol had eight liquid periods. The first liquid period was to stabilize current amplitude, which was monitored using repetitive 200-ms voltage pulses stepping from −80 mV to 0 mV. The second liquid period was to determine baseline current amplitude in the presence of vehicle control, using a single 20-ms voltage pulse stepping from −80 mV to 0 mV. The third through eighth liquid periods were used to ascertain a 6-dose response to compound treatments, also using single 20-ms voltage pulses stepping from −80 mV to 0 mV. The EC50 was generated using the following equation Iconcentration=Ibase+(Ifull−Ibase)*c^n/(XC50^n+c^n), where c is the concentration and n is the Hill coefficient constant. Ifull is the maximal current achievable, and Ibase is 0. A channel biophysics assay protocol was used to determine channel gating properties including current-voltage relationship (IV curves), half-way channel activation voltage (V1/2), rate of channel inactivation (tau), and amplitude of tail current. Among these, V1/2 was derived from fitting equation G(V)=Gvmin+(Gvmax−Gvmin)/(1+exp(−(V−V½)/Vslope)), where G stands for conductance, Gvmin equals 0, Gvmax is the maximal conductance, and Vslope is a slope factor. G(V) was pre-calculated from equation G(V)=I(V)/(V−0.06), for each experimentally applied depolarization potential (V) and the corresponding current amplitude (I(V)), and 0.06 in the equation was the experimentally determined reversal potential in volts. The protocol had four liquid periods.

[1] = Compound exposure in wild-type mice (brain and blood levels); format: in vivo, C57BL/6J male mice; settings: Table 9, mice, i.p., one hour after administration; for Kp at 1 h: male, C57BL/6J, mouse, brain (cerebellum) / blood, ip, read-out: Brain:blood ratio
Method: Compound administration and brain tissue collection. Wild-type C57BL/6J male mice were obtained from Jackson laboratories (Bar Harbor, ME). The acute, single-dose effects of CaV1.2 activators of the present disclosure were evaluated in male eight-week old mice (n=6 mice per compound). Each compound was dissolved in 10% PEG300, 10% Solutol, 10% Cremophore EL, and 70% Phosphate Buffered Saline and administered intraperitoneal (i.p.) at a concentration of 1 mg/kg up to 30 mg/kg depending on the compound. Animals were euthanized one hour after compound administration via exsanguination under deep anesthesia. Blood was collected in EDTA tubes for downstream analysis of drug levels. Brains were rapidly removed from the skull, and the cerebral cortex and cerebellum were regionally dissected. Cerebellar samples were snap frozen in liquid nitrogen to assess compound exposure. Cortical samples for cFos assessment were placed in 500 μl of RNAlater solution (ThermoFisher) to preserve the integrity of RNA in the sample. Samples remained in RNAlater for at least 24 hours at 4° C. before moving to −80° C. for storage before processing.
Quantification of compound exposure. Cerebellar tissue samples were homogenized in 4 ml of 20% acetonitrile and 80% Phosphate buffered saline for every 1 g of tissue (5× dilution). Tissue was homogenized using either of the following three methods: hand held probe system, TissueLyser system with 5 mm steel bead at a frequency of 30 s^−1 for 4 min, or OMNI Bead Ruptor Elite homogenizer for 30 seconds to 1 minute depending on tissue type. Tissue samples were added to a 96-well plate (12.5 uL sample) and processed for quantification by mass spectrometry.

T1 sequence (Q13936 1-2138 isoform Q13936-23): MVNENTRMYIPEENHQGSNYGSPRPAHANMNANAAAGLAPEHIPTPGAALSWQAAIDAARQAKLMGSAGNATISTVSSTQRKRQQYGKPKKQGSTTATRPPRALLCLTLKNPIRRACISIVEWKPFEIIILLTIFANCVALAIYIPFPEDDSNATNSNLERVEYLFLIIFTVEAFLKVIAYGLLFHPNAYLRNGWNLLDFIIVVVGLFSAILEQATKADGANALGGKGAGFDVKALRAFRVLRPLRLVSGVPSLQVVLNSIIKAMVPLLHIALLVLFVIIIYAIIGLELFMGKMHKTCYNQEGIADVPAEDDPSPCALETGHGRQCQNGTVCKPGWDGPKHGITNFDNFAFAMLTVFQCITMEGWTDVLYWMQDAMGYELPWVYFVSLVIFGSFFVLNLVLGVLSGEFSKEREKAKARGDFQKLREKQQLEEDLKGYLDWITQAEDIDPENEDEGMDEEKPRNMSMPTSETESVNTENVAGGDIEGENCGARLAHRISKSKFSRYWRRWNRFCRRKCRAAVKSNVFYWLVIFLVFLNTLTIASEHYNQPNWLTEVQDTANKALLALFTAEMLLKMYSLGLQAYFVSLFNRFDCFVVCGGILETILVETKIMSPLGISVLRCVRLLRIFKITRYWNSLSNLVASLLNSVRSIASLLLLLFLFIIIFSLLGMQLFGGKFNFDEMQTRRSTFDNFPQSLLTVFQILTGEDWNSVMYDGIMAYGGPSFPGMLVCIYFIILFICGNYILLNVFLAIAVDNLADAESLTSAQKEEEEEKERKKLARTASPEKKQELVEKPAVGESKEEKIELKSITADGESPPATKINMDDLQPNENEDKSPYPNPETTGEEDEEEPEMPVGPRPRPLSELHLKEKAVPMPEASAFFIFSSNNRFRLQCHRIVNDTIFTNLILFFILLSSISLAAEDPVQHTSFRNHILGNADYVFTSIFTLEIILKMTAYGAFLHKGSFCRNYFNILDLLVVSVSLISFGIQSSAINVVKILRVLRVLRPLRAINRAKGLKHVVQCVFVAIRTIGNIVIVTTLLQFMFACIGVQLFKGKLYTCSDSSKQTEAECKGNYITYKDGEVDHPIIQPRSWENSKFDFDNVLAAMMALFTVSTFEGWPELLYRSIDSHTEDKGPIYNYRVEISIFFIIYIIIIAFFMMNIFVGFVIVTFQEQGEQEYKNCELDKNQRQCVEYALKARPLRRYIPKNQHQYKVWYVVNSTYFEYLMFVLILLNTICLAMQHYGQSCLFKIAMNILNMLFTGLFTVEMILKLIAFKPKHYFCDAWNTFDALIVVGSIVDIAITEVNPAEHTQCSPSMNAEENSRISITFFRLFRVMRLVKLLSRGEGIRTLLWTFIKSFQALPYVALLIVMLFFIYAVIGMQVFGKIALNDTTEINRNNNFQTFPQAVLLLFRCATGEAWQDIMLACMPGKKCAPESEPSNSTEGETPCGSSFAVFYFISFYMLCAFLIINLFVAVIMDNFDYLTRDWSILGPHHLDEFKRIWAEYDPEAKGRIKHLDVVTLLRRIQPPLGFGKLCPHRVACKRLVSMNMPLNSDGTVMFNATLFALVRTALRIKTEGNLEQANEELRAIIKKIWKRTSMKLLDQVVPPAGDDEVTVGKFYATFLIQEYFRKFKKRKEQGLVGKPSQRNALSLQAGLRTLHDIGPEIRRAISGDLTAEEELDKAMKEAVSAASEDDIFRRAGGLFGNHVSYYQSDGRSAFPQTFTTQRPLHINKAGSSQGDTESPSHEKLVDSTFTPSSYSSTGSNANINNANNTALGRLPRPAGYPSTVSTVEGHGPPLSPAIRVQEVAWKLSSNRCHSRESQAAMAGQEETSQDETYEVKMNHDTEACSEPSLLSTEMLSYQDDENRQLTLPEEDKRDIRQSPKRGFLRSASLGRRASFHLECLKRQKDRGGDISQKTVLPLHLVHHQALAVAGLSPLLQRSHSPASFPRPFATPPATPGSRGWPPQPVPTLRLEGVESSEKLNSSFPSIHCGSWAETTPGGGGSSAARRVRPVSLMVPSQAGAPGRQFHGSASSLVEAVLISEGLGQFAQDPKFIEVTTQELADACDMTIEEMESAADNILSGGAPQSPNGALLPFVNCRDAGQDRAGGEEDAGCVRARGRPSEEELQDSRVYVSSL
T1 sequence (Q9NY47 19-1001 partner limits assumed): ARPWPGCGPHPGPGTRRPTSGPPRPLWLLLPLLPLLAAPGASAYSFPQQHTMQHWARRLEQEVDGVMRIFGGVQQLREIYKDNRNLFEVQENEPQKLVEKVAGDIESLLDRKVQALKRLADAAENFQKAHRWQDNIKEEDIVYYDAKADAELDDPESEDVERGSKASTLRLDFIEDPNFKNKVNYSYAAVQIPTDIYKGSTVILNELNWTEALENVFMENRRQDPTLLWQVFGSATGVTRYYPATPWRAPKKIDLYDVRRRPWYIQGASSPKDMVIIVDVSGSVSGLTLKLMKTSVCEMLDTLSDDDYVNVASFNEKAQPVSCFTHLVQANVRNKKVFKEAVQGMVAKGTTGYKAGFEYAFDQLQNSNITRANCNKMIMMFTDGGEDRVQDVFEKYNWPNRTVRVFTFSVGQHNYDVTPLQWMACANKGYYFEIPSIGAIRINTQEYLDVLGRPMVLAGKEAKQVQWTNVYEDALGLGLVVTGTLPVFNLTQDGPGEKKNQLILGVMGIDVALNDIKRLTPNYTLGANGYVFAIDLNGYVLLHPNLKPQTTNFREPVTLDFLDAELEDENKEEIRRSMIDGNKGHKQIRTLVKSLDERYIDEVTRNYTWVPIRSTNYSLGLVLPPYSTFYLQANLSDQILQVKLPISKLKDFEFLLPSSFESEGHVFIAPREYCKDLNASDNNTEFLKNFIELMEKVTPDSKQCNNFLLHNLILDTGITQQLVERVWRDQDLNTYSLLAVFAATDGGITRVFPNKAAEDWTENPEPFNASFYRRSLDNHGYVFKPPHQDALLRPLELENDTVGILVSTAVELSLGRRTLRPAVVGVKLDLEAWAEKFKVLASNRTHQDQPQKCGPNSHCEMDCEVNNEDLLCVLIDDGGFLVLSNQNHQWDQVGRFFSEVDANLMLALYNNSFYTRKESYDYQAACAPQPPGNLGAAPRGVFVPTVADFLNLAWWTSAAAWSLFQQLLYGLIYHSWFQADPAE
T1 sequence (Q9NY47 1002-1150 partner limits assumed): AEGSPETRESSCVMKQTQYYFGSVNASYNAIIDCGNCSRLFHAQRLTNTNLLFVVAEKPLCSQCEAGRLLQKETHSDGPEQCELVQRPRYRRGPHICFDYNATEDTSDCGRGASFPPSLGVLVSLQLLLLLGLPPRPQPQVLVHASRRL
T1 sequence (Q08289 whole entry partner): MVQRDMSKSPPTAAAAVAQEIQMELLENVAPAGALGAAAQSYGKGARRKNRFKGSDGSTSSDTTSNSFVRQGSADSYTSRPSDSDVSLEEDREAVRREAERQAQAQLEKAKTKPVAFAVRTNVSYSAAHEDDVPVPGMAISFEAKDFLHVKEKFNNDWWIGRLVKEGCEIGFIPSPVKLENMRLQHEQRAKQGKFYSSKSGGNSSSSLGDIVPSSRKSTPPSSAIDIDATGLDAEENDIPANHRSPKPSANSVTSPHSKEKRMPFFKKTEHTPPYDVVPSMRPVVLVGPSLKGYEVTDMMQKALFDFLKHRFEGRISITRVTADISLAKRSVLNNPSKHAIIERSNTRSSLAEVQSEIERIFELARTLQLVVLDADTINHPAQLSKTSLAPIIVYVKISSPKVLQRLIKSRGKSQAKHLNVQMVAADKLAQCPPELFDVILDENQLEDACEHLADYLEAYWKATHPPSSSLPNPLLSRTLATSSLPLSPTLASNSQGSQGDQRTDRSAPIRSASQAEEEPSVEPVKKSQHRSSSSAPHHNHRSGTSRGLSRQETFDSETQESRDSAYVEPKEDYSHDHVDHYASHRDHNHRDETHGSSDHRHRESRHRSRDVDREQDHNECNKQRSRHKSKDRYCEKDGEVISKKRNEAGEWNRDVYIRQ

Row | SMILES | Kp at 1 h [1] | Brain:blood ratio [1] | EC50 (human CaV1.2) [nM] | Qpatch Emax (human CaV1.2)
1 | COC(=O)C1=C(CF)NC2=C(C(=O)OC2)[C@H]1c1cccc(F)c1[C@H]1CC1(F)F (single isomer, unassigned) [Example 1, methyl (R)-4-(2-((R or S)-2,2-difluorocyclopropyl)-3-fluorophenyl)-2-(fluoromethyl)-5-oxo-1,4,5,7-tetrahydrofuro[3,4-b]pyridine-3-carboxylate] | 2.9 | – | 24 | 1.9
2 | COC(=O)C1=C(CF)NC2=C(C(=O)OC2)[C@H]1c1cccc(F)c1C1CC1 (single isomer, unassigned) [Example 2] | 1.5 | – | 12 | 2.3
3 | COC(=O)C1=C(CF)NC2=C(C(=O)OC2)[C@H]1c1cc(F)cc(F)c1[C@H]1CC1(F)F (single isomer, unassigned) [Example 3, Methyl (R)-4-(2-((R or S)-2,2-difluorocyclopropyl)-3,5-difluorophenyl)-2-(fluoromethyl)-5-oxo-1,4,5,7-tetrahydrofuro[3,4-b]pyridine-3-carboxylate] | 2.8 | – | 50 | 1.6
4 | COC(=O)C1=C(CF)NC2=C(C(=O)OC2)[C@H]1c1cc(F)cc(F)c1[C@H]1CC1(F)F (single isomer, unassigned) [Example 4, Methyl (R)-4-(2-((R or S)-2,2-difluorocyclopropyl)-3,5-difluorophenyl)-2-(fluoromethyl)-5-oxo-1,4,5,7-tetrahydrofuro[3,4-b]pyridine-3-carboxylate] | – | 1.4 | 20 | 1.9
5 | COC(=O)C1=C(CF)NC2=C(C(=O)OC2)[C@H]1c1cc(F)cc(F)c1[C@H](C)F (single isomer, unassigned) [Example 5, methyl (R)-4-(3,5-difluoro-2-((R or S)-1-fluoroethyl)phenyl)-2-(fluoromethyl)-5-oxo-1,4,5,7-tetrahydrofuro[3,4-b]pyridine-3-carboxylate] | 3.3 | – | 20 | 1.9
6 | COC(=O)C1=C(CF)NC2=C(C(=O)OC2)[C@H]1c1cccc(F)c1[C@H](F)CF (single isomer, unassigned) [Example 6] | 1.5 | – | 17 | 1.4*
7 | COC(=O)C1=C(CF)NC2=C(C(=O)CC2)[C@H]1c1cccc(F)c1[C@@H](F)CF (single isomer, unassigned) [Example 7, methyl (R)-4-(2-((R or S)-1,2-difluoroethyl)-3-fluorophenyl)-2-(fluoromethyl)-5-oxo-4,5,6,7-tetrahydro-1H-cyclopenta[b]pyridine-3-carboxylate] | – | – | 30 | 1.8
8 | COC(=O)C1=C(CF)NC2=C(C(=O)OC2)[C@H]1c1cccc(F)c1[C@@H](C)F (single isomer, unassigned) [Example 8] | 3.5 | – | 20 | 2.0

Continued, in another order:

Row | Kp at 1 h [1] | Brain:blood ratio [1] | SMILES | EC50 (human CaV1.2) [nM] | Qpatch Emax (human CaV1.2)
9 | 1.5 | – | COC(=O)C1=C(CF)NC2=C(C(=O)OC2)[C@H]1c1ccccc1OC(F)F (single isomer, unassigned) [Example 9] | 100 | 1.5
10 | 0.9 | – | COC(=O)C1=C(CF)NC2=C(C(=O)OC2)[C@H]1c1cc(F)cc(F)c1C(F)(F)F (single isomer, unassigned) [Example 10] | 40 | 1.8
11 | 1.1 | – | COC(=O)C1=C(CF)NC2=C(C(=O)OC2)[C@H]1c1cccc(F)c1CC(F)F (single isomer, unassigned) [Example 11] | 70 | 2.0
12 | 3.5 | – | COC(=O)C1=C(CF)NC2=C(C(=O)OC2)[C@H]1c1cc(F)cc(F)c1C1CC1 (single isomer, unassigned) [Example 13] | 20 | 1.6*
13 | 1.7 | – | COC(=O)C1=C(CF)NC2=C(C(=O)OC2)[C@H]1c1cccc(F)c1C(F)F (single isomer, unassigned) [Example 15] | 290 | 1.3
14 | 3.2 | – | COC(=O)C1=C(CF)NC2=C(C(=O)OC2)[C@H]1c1cc(F)cc(F)c1[C@H](F)CF (single isomer, unassigned) [Example 16, methyl (R)-4-(2-((R or S)-1,2-difluoroethyl)-3,5-difluorophenyl)-2-(fluoromethyl)-5-oxo-1,4,5,7-tetrahydrofuro[3,4-b]pyridine-3-carboxylate] | 10 | 1.5
15 | 2.1 | – | COC(=O)C1=C(CF)NC2=C(C(=O)OC2)[C@H]1c1cccc(F)c1C(F)(F)F (single isomer, unassigned) [Example 17] | 120 | 1.2
16 | 1 | – | COC(=O)C1=C(CF)NC2=C(C(=O)OC2)[C@H]1c1cc(F)cc(F)c1C(F)F (single isomer, unassigned) [Example 18] | 210 | 1.8
17 | 1.2 | – | COC(=O)C1=C(CF)NC2=C(C(=O)OC2)[C@H]1c1cc(F)ccc1C(F)(F)F (single isomer, unassigned) [Example 23] | 120 | 3.5
18 | 1.1 | – | COC(=O)C1=C(CF)NC2=C(C(=O)CC2)[C@H]1c1cccc(F)c1C1CC1 (single isomer, unassigned) [Example 28] | 60 | 1.9
